For two compounds, IC50 results are on record in US9718832B2, “Hexahydrofuropyrroles as PDE1 inhibitors” (H. Lundbeck A/S, priority 2014, dated 2017).

What is called IC50 is the midpoint of a concentration-inhibition curve. Read a high IC50 as weaker potency in that assay.

Structures are written as SMILES.

What all share (format): biochemical
Holding throughout (settings): 15 nM tritium labelled cAMP, 1 h at room temperature, SPA beads

In one assay the target is PDE1B (Homo sapiens, UniProt Q01064). Description: PDE1 inhibition assay (PDE1B). On the procedure:
(§1) PDE1A, PDE1B and PDE1C assays were performed as follows: the assays was performed in 60 μL samples containing a fixed amount of the PDE1 enzym1 (sufficient to convert 20-25% of the cyclic nucleotide substrate), a buffer (50 mM HEPES pH 7.6; 10 mM MgCl2; 0.02% Tween20), 0.1 mg/ml BSA, 15 nM tritium labelled cAMP and varying amounts of inhibitors. Reactions were initiated by addition of the cyclic nucleotide substrate, and reactions were allowed to proceed for 1 h at room temperature before being terminated through mixing with 20 μL (0.2 mg) yttrium silicate SPA beads (PerkinElmer). The beads were allowed to settle for 1 h in the dark before the plates were counted in a Wallac 1450 Microbeta counter. The measured signals were converted to activity relative to an uninhibited control (100%) and IC50 values were calculated using XIFit (model 205, IDBS).

The target in another assay is PDE1A (Homo sapiens, UniProt P54750). Description: PDE1 inhibition assay (PDE1A). On the procedure: as §1
Another assay concerns the target PDE1C (Homo sapiens, UniProt Q14123). Description: PDE1 inhibition assay (PDE1C). The method, then:
as §1

Sequence of PDE1B (Q01064 whole entry): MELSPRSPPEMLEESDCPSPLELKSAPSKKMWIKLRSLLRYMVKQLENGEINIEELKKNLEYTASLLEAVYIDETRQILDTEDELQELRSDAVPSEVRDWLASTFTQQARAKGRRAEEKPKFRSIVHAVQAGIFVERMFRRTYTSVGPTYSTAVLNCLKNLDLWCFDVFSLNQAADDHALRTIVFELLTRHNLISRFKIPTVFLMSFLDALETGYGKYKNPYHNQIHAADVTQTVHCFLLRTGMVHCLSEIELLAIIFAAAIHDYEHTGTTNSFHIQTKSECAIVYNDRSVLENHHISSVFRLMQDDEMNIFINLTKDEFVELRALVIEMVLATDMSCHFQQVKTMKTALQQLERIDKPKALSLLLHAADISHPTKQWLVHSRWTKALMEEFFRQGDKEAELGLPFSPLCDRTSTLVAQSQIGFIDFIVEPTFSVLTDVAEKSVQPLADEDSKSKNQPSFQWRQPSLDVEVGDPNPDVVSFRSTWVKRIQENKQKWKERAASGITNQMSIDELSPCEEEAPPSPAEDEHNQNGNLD
Sequence of PDE1C (Q14123 whole entry): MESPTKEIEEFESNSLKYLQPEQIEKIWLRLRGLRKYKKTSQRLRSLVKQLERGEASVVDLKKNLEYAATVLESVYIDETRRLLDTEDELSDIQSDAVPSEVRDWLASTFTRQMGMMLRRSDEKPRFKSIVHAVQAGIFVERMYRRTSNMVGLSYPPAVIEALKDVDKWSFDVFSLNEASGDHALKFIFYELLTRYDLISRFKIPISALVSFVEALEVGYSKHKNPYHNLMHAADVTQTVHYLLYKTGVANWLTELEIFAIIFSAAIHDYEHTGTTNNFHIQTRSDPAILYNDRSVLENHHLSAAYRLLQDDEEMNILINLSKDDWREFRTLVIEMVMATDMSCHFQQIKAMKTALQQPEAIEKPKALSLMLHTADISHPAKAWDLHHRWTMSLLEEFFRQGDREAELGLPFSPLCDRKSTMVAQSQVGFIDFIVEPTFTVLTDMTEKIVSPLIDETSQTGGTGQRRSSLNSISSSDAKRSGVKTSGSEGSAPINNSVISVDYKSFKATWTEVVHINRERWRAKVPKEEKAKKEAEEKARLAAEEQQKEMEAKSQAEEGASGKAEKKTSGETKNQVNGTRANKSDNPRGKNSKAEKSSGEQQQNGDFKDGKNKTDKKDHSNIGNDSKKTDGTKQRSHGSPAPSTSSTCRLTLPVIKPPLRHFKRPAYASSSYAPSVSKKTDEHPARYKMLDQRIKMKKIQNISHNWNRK
Sequence of PDE1A (P54750 whole entry): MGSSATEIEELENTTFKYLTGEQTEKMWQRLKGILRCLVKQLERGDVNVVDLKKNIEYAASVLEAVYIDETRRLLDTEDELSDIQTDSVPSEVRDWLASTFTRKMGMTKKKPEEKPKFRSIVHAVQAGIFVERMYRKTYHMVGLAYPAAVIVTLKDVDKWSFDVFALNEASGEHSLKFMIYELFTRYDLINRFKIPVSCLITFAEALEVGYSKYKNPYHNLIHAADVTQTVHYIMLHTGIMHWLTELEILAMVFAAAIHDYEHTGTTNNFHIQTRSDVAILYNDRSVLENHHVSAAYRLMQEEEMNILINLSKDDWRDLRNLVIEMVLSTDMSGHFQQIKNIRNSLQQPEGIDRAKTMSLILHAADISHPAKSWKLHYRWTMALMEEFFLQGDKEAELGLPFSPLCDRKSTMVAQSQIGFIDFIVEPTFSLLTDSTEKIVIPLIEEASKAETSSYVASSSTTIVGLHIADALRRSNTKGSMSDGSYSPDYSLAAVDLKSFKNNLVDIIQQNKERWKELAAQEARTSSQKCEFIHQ

For the compound `COc1ccc2c(N3CC[C@H]4OCC[C@H]43)ncnc2c1OC` (single isomer, unassigned) [Compound 2], the IC50 against PDE1B was 3700 nM; at PDE1A, 3200 nM; against PDE1C it was 2800 nM.
In the same order, the values of `COc1ccc2c(N3CC[C@@H]4OCC[C@@H]43)ncnc2c1OC` (single isomer, unassigned) [Compound 1] are 120 nM, 160 nM and 120 nM.
